Data taken from patent publication US20260274833A1 (NiKang Therapeutics, Inc., priority 2022, published 2026).

These compounds were tested against T1, CDK2 (Homo sapiens, UniProt P24941) (assay: Phospho-RB measurement in OVCAR3 cells (HTRF phospho-RB cellular kit)). Conditions: inhibition of RB phosphorylation at S807/811 (HTRF, TR-FRET ratio 665/620), 24 h compound treatment, 0.3 to 10,000 nM.
T1 construct: endogenous in cells; host or cells: OVCAR3 cells
Format: cell-based
How it was run: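 IC50 came from a four-parameter logistic fit of the DMSO-normalized TR-FRET ratio (665/620 nm). That ratio reflects RB phosphorylation at S807/811, read with an HTRF antibody pair 4 h after adding lysate at room temperature.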

| SMILES | IC50 [nM] |
| --- | --- |
| CC(C)(C)c1nc(-c2cccc(NS(=O)(=O)N3Cc4cccc(Cc5ccccc5)c4C3)c2F)c(-c2ccnc(NC3CC4(C3)CS(=O)(=O)C4)n2)s1 [Example 232, 4-benzyl-N-(3-(2-(tert-butyl)-5-(2-((2,2-dioxido-2-thiaspiro[3.3]heptan-6-yl)amino)-pyrimidin-4-yl)thiazol-4-yl)-2-fluorophenyl)-isoindoline-2-sulfonamide] | 939 |
| COCCN1CCN(c2ccc(Nc3nccc(-c4sc(C(C)(C)C)nc4-c4cccc(NS(=O)(=O)N5CCc6ccc(C#N)cc65)c4F)n3)cc2)CC1 [Example 233, N-(3-(2-(tert-butyl)-5-(2-((4-(4-(2-methoxy-ethyl)piperazin-1-yl)phenyl)-amino)-pyrimidin-4-yl)thiazol-4-yl)-2-fluorophenyl)-6-cyanoindoline-1-sulfonamide] | 765 |
| COCCOCCN1CCN(c2ccc(Nc3nccc(-c4sc(C(C)(C)C)nc4-c4cccc(NS(=O)(=O)N5CCc6ccc(C#N)cc65)c4F)n3)cc2)CC1 [Example 234, N-(3-(2-(tert-butyl)-5-(2-((4-(4-(2-(2-methoxy-ethoxy)ethyl)piperazin-1-yl)phenyl)amino)-pyrimidin-4-yl)thiazol-4-yl)-2-fluorophenyl)-6-cyanoindoline-1-sulfonamide] | 1200 |
| CC(C)(C)OC(=O)N1CCN(c2ccc(Nc3nccc(-c4sc(C(C)(C)C)nc4-c4cccc(NS(=O)(=O)N5CCc6ccc(C#N)cc65)c4F)n3)cc2)CC1 [Example 235, tert-butyl 4-(4-((4-(2-(tert-butyl)-4-(3-((6-cyanoindoline)-1-sulfonamido)-2-fluorophenyl)thiazol-5-yl)pyrimidin-2-yl)amino)phenyl) piperazine-1-carboxylate] | 3390 |
| CC(C)(C)c1nc(-c2cccc(NS(=O)(=O)N3Cc4ccnc(O)c4C3)c2F)c(-c2ccnc(NC3CCN(S(C)(=O)=O)CC3)n2)s1 [Example 239, N-(3-(2-(tert-butyl)-5-(2-((1-(methylsulfonyl)-piperidin-4-yl)amino)-pyrimidin-4-yl)thiazol-4-yl)-2-fluoro-phenyl)-4-hydroxy-1,3-dihydro-2H-pyrrolo[3,4-c] pyridine-2-sulfonamide] | 4690 |
| CN(C)Cc1cccc(Nc2nccc(-c3sc(C(C)(C)C)nc3-c3cccc(NS(=O)(=O)N4CCc5ccc(C#N)cc54)c3F)n2)c1 [Example 241, N-(3-(2-(tert-butyl)-5-(2-((3-((dimethylamino)-methyl)phenyl)-amino)pyrimidin-4-yl)thiazol-4-yl)-2-fluorophenyl)-6-cyanoindoline-1-sulfonamide] | 521 |
| CC(C)(C)c1nc(-c2cccc(NS(=O)(=O)N3Cc4ccc(C(F)(F)F)cc4C3)c2F)c(-c2ccnc(NC3CCN(S(C)(=O)=O)CC3)n2)s1 [Example 243, N-(3-(2-(tert-butyl)-5-(2-((1-(methylsulfonyl)-piperidin-4-yl)amino)-pyrimidin-4-yl)thiazol-4-yl)-2-fluoro-phenyl)-5-(trifluoromethyl)-isoindoline-2-sulfonamide] | 1200 |
| CC(C)(C)c1nc(-c2cccc(NS(=O)(=O)N3Cc4cccc(OCCN)c4C3)c2F)c(-c2ccnc(NC3CCN(S(C)(=O)=O)CC3)n2)s1 [Example 244, 4-(2-aminoethoxy)-N-(3-(2-(tert-butyl)-5-(2-((1-(methylsulfonyl)piperidin-4-yl)amino)-pyrimidin-4-yl)thiazol-4-yl)-2-fluorophenyl)-isoindoline-2-sulfonamide] | 1450 |

Now those with a lower IC50, led by results:

| IC50 [nM] | SMILES |
| --- | --- |
| 477 | CC1(c2nc(-c3cccc(NS(=O)(=O)N4CCc5ccc(C#N)cc54)c3F)c(-c3ccnc(Nc4ccc(N5CCNCC5)cc4)n3)s2)CCOCC1 [Example 236, 6-cyano-N-(2-fluoro-3-(2-(4-methyltetrahydro-2H-pyran-4-yl)-5-(2-((4-(piperazin-1-yl)-phenyl)amino)-pyrimidin-4-yl)thiazol-4-yl)-phenyl)indoline-1-sulfonamide] |
| 405 | CN(C)Cc1ccc(Nc2nccc(-c3sc(C(C)(C)C)nc3-c3cccc(NS(=O)(=O)N4CCc5ccc(C#N)cc54)c3F)n2)cc1 [Example 248, N-(3-(2-(tert-butyl)~5-(2-((4-((dimethylamino)-methyl)phenyl)-amino)pyrimidin-4-yl)thiazol-4-yl)-2-fluorophenyl)-6-cyanoindoline-1-sulfonamide] |
| 338 | CC(C)(C)c1nc(-c2cccc(NS(=O)(=O)N3CCc4c(CN5CCOCC5)cccc43)c2F)c(-c2ccnc(NC3CCN(S(C)(=O)=O)CC3)n2)s1 [Example 245, N-(3-(2-(tert-butyl)-5-(2-((1-(methylsulfonyl)piperidin-4-yl)amino)-pyrimidin-4-yl)thiazol-4-yl)-2-fluorophenyl)-4-(morpholinomethyl)-indoline-1-sulfonamide] |
| 334 | CC(C)(C)c1nc(-c2cccc(NS(=O)(=O)N3Cc4ccc(CC#N)cc4C3)c2F)c(-c2ccnc(NC3CC4(C3)CS(=O)(=O)C4)n2)s1 [Example 246, N-(3-(2-(tert-butyl)-5-(2-((2,2-dioxido-2-thiaspiro[3.3]heptan-6-yl)amino)-pyrimidin-4-yl)thiazol-4-yl)-2-fluoro-phenyl)-5-(cyanomethyl)-isoindoline-2-sulfonamide] |
| 302 | CC(C)(C)c1nc(-c2cccc(NS(=O)(=O)N3CCc4ccc(C#N)cc43)c2F)c(-c2ccnc(Nc3ccc(S(C)(=O)=O)cc3)n2)s1 [Example 242, N-(3-(2-(tert-butyl)-5-(2-((4-(methylsulfonyl)-phenyl)amino)-pyrimidin-4-yl)thiazol-4-yl)-2-fluoro-phenyl)-6-cyanoindoline-1-sulfonamide] |
| 297 | CC(C)(C)c1nc(-c2cccc(NS(=O)(=O)N3Cc4cccc(OCCO)c4C3)c2F)c(-c2ccnc(NC3CCN(S(C)(=O)=O)CC3)n2)s1 [Example 237, N-(3-(2-(tert-butyl)-5-(2-((1-(methylsulfonyl)-piperidin-4-yl)amino)-pyrimidin-4-yl)thiazol-4-yl)-2-fluoro-phenyl)-4-(2-hydroxyethoxy)-isoindoline-2-sulfonamide] |
| 295 | CC(C)(C)c1nc(-c2cccc(NS(=O)(=O)N3CCc4c(CC#N)cccc43)c2F)c(-c2ccnc(NC3CC4(C3)CS(=O)(=O)C4)n2)s1 [Example 238, N-(3-(2-(tert-butyl)-5-(2-((2,2-dioxido-2-thiaspiro[3.3]heptan-6-yl)amino)-pyrimidin-4-yl)thiazol-4-yl)-2-fluoro-phenyl)-4-(cyanomethyl) indoline-1-sulfonamide] |
| 117 | CC(C)(C)c1nc(-c2cccc(NS(=O)(=O)N3Cc4cccc(OCC#N)c4C3)c2F)c(-c2ccnc(NC3CCN(S(C)(=O)=O)CC3)n2)s1 [Example 247, N-(3-(2-(tert-butyl)-5-(2-((1-(methylsulfonyl)-piperidin-4-yl)amino)-pyrimidin-4-yl)thiazol-4-yl)-2-fluoro-phenyl)-4-(cyanomethoxy)-isoindoline-2-sulfonamide] |
| 38.2 | CC1(c2nc(-c3cccc(NS(=O)(=O)N4CCc5ccc(C#N)cc54)c3F)c(-c3ccnc(NC4CC5CS(=O)(=O)CC5C4)n3)s2)CCOCC1 (centres unmarked) [Example 240, 6-cyano-N-(3-(5-(2-((2,2-dioxidohexa-hydro-1H-cyclopenta[c]thiophen-5-yl)amino)-pyrimidin-4-yl)-2-(4-methyl-tetrahydro-2H-pyran-4-yl)thiazol-4-yl)-2-fluorophenyl)-indoline-1-sulfonamide] |
